These results are taken from PubChem BioAssay AID248 (DTP/NCI, 2004).

In this test the test system is L1210 leukemia ip in BDF1 mice, survival T/C. Description: NCI In Vivo Anticancer Drug Screen. Data for tumor model L1210 Leukemia (intraperitoneal) in B6D2F1 (BDF1) mice. The following applies: endpoint: mean survival time, higher = longer survival. An outline of the steps: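 Transplanted-tumor mice were given test agent; controls received vehicle only. Survival readings from the two groups were divided (treated over control).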

Where [1] appears, read: dose: 100.0 mg/kg/injection, schedule: Q01DX009 (ip), vehicle: saline with Tween-80.
Setting [2] is: dose: 100.0 mg/kg/injection, schedule: Q04DX003 (ip), vehicle: saline with Tween-80.
The mark [3] stands for this setting: dose: 200.0 mg/kg/injection, schedule: Q01DX009 (ip), vehicle: saline with Tween-80.
Setting [4] is: dose: 200.0 mg/kg/injection, schedule: Q04DX003 (ip), vehicle: saline with Tween-80.
The mark [5] stands for this setting: dose: 400.0 mg/kg/injection, schedule: Q04DX003 (ip), vehicle: saline with Tween-80.
The mark [6] stands for this setting: dose: 100.0 mg/kg/injection, schedule: Q01DX001 (ip), vehicle: saline.
[7] abbreviates: dose: 200.0 mg/kg/injection, schedule: Q01DX001 (ip), vehicle: saline.
The mark [8] stands for this setting: dose: 50.0 mg/kg/injection, schedule: Q01DX009 (ip), vehicle: saline.
Setting [9] is: dose: 100.0 mg/kg/injection, schedule: Q01DX009 (ip), vehicle: Klucel (hydroxypropylcellulose) (HPC).
Setting [10] is: dose: 100.0 mg/kg/injection, schedule: Q04DX003 (ip), vehicle: Klucel (hydroxypropylcellulose) (HPC).
The mark [11] stands for this setting: dose: 200.0 mg/kg/injection, schedule: Q01DX009 (ip), vehicle: Klucel (hydroxypropylcellulose) (HPC).
The mark [12] stands for this setting: dose: 200.0 mg/kg/injection, schedule: Q04DX003 (ip), vehicle: Klucel (hydroxypropylcellulose) (HPC).
Where [13] appears, read: dose: 400.0 mg/kg/injection, schedule: Q01DX009 (ip), vehicle: Klucel (hydroxypropylcellulose) (HPC).
Where [14] appears, read: dose: 400.0 mg/kg/injection, schedule: Q04DX003 (ip), vehicle: Klucel (hydroxypropylcellulose) (HPC).
[15] abbreviates: dose: 100.0 mg/kg/injection, schedule: Q04DX002 (ip), vehicle: saline with Tween-80.

“And” between values parts separate entries of the source, which are not always exact repeats. Equal values may be shown once. Inconclusive results and toxic doses are left out.

As for `O=[N+]([O-])c1ccc(OCCNS(=O)(=O)c2cccc(S(=O)(=O)F)c2)c(Cl)c1`, the T/C is 104 % of control under setting [1]; 97 % of control under setting [2]; 88 % of control under setting [3]; 95 % of control under setting [4]; 90 % of control (dose: 400.0 mg/kg/injection, schedule: Q01DX009 (ip), vehicle: saline with Tween-80); 101 % of control under setting [5].

Regarding `NNc1ccccc1`, the T/C reads like this: under setting [6], 105 % of control; under setting [7], 111 % of control.

For `CN(Cc1cnc2nc(N)nc(N)c2n1)c1ccc(C(=O)NC(CCC(=O)O)C(=O)O)cc1C(F)(F)F` (configuration not stated), the T/C (dose: 5.0 mg/kg/injection, schedule: Q01DX009 (ip), vehicle: sodium bicarbonate) was 158 % of control and the T/C (dose: 10.0 mg/kg/injection, schedule: Q01DX009 (ip), vehicle: sodium bicarbonate) is 168 % of control.

With `CN(/N=N/N(C)c1ccccc1)c1ccccc1`, the T/C was 102 % of control (dose: 6.3 mg/kg/injection, schedule: Q01DX Z (sc), vehicle: carboxymethylcellulose (CMC)); 113 % of control (dose: 12.5 mg/kg/injection, schedule: Q01DX Z (sc), vehicle: carboxymethylcellulose (CMC)); 105 % of control and 106 % of control (dose: 25.0 mg/kg/injection, schedule: Q01DX Z (sc), vehicle: carboxymethylcellulose (CMC)); 102 % of control (dose: 50.0 mg/kg/injection, schedule: Q01DX Z (sc), vehicle: carboxymethylcellulose (CMC)); 102 % of control (dose: 100.0 mg/kg/injection, schedule: Q01DX001 (ip), vehicle: carboxymethylcellulose (CMC)); 104 % of control (dose: 100.0 mg/kg/injection, schedule: Q01DX Z (sc), vehicle: carboxymethylcellulose (CMC)). Further, the T/C (dose: 150.0 mg/kg/injection, schedule: Q01DX Z (sc), vehicle: carboxymethylcellulose (CMC)) is 91 % of control; the T/C (dose: 200.0 mg/kg/injection, schedule: Q01DX001 (ip), vehicle: carboxymethylcellulose (CMC)) was 102 % of control; the T/C (dose: 300.0 mg/kg/injection, schedule: Q01DX Z (sc), vehicle: carboxymethylcellulose (CMC)) was 100 % of control; the T/C (dose: 400.0 mg/kg/injection, schedule: Q01DX001 (ip), vehicle: carboxymethylcellulose (CMC)) was 98 % of control.

As for `Cn1nc(NC(=O)C(F)(F)F)c2ncc(-c3ccccc3)nc21`, the T/C was 96 % of control under setting [1] and 96 % of control under setting [3].

Take `CCCCCC[As](=O)(O)CCCCCC`: the T/C (dose: 50.0 mg/kg/injection, schedule: Q01DX001 (ip), vehicle: saline) is 103 % of control.

Regarding `CCCCCCCCCc1ccc(OP(Oc2ccccc2)Oc2ccc(CCCCCCCCC)cc2)cc1`, the T/C is 100 % of control (dose: 75.0 mg/kg/injection, schedule: Q01DX001 (ip), vehicle: saline) and 109 % of control (dose: 150.0 mg/kg/injection, schedule: Q01DX001 (ip), vehicle: saline).

Regarding `CC1(C)COP(=O)(O)OC1`, the T/C is, setting by setting: (dose: 50.0 mg/kg/injection, schedule: Q01DX009 (ip), vehicle: saline with Tween-80) 105 % of control; under setting [6], 101 % of control; under setting [1], 96 % of control; under setting [7], 93 % of control; under setting [3], 91 % of control.

As for `CCC(/C=C1\Sc2ccc(C)cc2N1CC)=C\c1sc2ccc(OC)cc2[n+]1CC`, the T/C (dose: 2.0 mg/kg/injection, schedule: Q01DX001 (ip), vehicle: other) is 106 % of control and the T/C (dose: 4.0 mg/kg/injection, schedule: Q01DX001 (ip), vehicle: other) was 105 % of control.

With `FC(F)(F)C(F)(F)C1=NS1(C(F)(C(F)(F)F)C(F)(F)F)C(F)(C(F)(F)F)C(F)(F)F`, the T/C is 94 % of control (dose: 100.0 mg/kg/injection, schedule: Q01DX001 (ip), vehicle: acetone); 103 % of control (dose: 200.0 mg/kg/injection, schedule: Q01DX001 (ip), vehicle: acetone); 101 % of control (dose: 400.0 mg/kg/injection, schedule: Q01DX001 (ip), vehicle: acetone).

As for `Cc1ccc(S(=O)(=O)SC(Cl)(Cl)Cl)cc1`, the T/C under setting [8] was 105 % of control.

As for `CCCCn1c(=S)[nH]c2ccccc2c1=O`, the T/C was 100 % of control under setting [9]; 98 % of control under setting [10]; 94 % of control under setting [11]; 95 % of control under setting [12]; 96 % of control under setting [13]; 92 % of control under setting [14].

With `CC(C)C1CCC(C)C(NC(N)=O)C1` (configuration not stated), the T/C is 95 % of control under setting [6]; 97 % of control under setting [7]; 106 % of control (dose: 400.0 mg/kg/injection, schedule: Q01DX001 (ip), vehicle: saline).

Consider `Brc1ccc(N2N=NC3CN(c4ccccc4)CC32)cc1` (configuration not stated), for which the T/C runs as follows: under setting [2], 88 % of control; under setting [4], 91 % of control; under setting [5], 93 % of control.

With `CC1(C)COC(C)(C)C(=O)O1`, the T/C runs as follows: under setting [10], 106 % of control; under setting [12], 97 % of control.

On to `O=S(=O)(/N=C1C=C/C(=N/S(=O)(=O)c2ccccc2)C2C3C=CC(C3)C/12)c1ccccc1` (configuration not stated), for which the T/C is 109 % of control under setting [9]; 94 % of control under setting [10]; 103 % of control under setting [11]; 97 % of control under setting [12]; 95 % of control under setting [13]; 92 % of control under setting [14].

For the compound `CCCCCCCCC(=O)N1C(C)CCCC1C` (configuration not stated), the T/C is 111 % of control (dose: 100.0 mg/kg/injection, schedule: Q04DX002 (ip), vehicle: saline); 114 % of control (dose: 200.0 mg/kg/injection, schedule: Q04DX002 (ip), vehicle: saline); 100 % of control (dose: 400.0 mg/kg/injection, schedule: Q04DX002 (ip), vehicle: saline).

Regarding `NNC(=O)CCCc1ccccc1`, the T/C is 97 % of control (dose: 25.0 mg/kg/injection, schedule: Q01DX009 (ip), vehicle: saline); 103 % of control under setting [8]; 105 % of control under setting [6].

Take `O=C(COc1ccccc1)NCc1cccc(Cl)c1`: the T/C is 99 % of control (dose: 100.0 mg/kg/injection, schedule: Q01DX009 (ip), vehicle: gum acacia); 92 % of control (dose: 200.0 mg/kg/injection, schedule: Q01DX009 (ip), vehicle: gum acacia); 92 % of control (dose: 400.0 mg/kg/injection, schedule: Q01DX009 (ip), vehicle: gum acacia).

Regarding `Cc1c([N+](=O)[O-])cc(C(C)(C)C)c(OS(C)(=O)=O)c1[N+](=O)[O-]`, the T/C is, setting by setting: (dose: 25.0 mg/kg/injection, schedule: Q04DX002 (ip), vehicle: saline with Tween-80) 92 % of control; (dose: 50.0 mg/kg/injection, schedule: Q04DX002 (ip), vehicle: saline with Tween-80) 99 % of control; under setting [15], 96 % of control.

Regarding `COc1cc2oc3cc(C)oc(=O)c3c2cc1OC`, the T/C reads like this: under setting [15], 106 % of control; (dose: 200.0 mg/kg/injection, schedule: Q04DX002 (ip), vehicle: saline with Tween-80) 95 % of control; (dose: 400.0 mg/kg/injection, schedule: Q04DX002 (ip), vehicle: saline with Tween-80) 103 % of control.

`CC(=O)c1cc(C(C)=O)c2cc(C)cc(O)c2c1O`: the T/C under setting [6] was 103 % of control.

For the compound `COC(=O)C1OC(n2cnc3c(N)ncnc32)C2OC(C)(C)OC12` (configuration not stated), the T/C (dose: 100.0 mg/kg/injection, schedule: Q01DX005 (ip), vehicle: saline) is 102 % of control and the T/C (dose: 200.0 mg/kg/injection, schedule: Q01DX005 (ip), vehicle: saline) is 104 % of control.

Consider `CC(=O)[O][Hg][c]1c(C)c(C)c(C)c(C)c1C`, for which the T/C (dose: 12.5 mg/kg/injection, schedule: Q04DX003 (ip), vehicle: saline with Tween-80) is 87 % of control; the T/C (dose: 25.0 mg/kg/injection, schedule: Q04DX003 (ip), vehicle: saline with Tween-80) was 87 % of control; the T/C (dose: 50.0 mg/kg/injection, schedule: Q04DX003 (ip), vehicle: saline with Tween-80) was 87 % of control.

Consider `O=[N+]([O-])CC1(O)CCCCC1`, for which the T/C runs as follows: (dose: 25.0 mg/kg/injection, schedule: Q01DX009 (ip), vehicle: Klucel (hydroxypropylcellulose) (HPC)) 97 % of control; (dose: 50.0 mg/kg/injection, schedule: Q01DX009 (ip), vehicle: Klucel (hydroxypropylcellulose) (HPC)) 98 % of control.

On to `COc1ccc(Cl)cc1NC(=O)Nc1cccc(C(C)=O)c1`, for which the T/C under setting [9] was 102 % of control, the T/C under setting [11] was 93 % of control and the T/C under setting [13] was 90 % of control.
